Data published in publication PMC5026937 (Antiviral research, 2016).
Entries after “also recorded” stand apart in the source; their conditions may differ.

Legend:
A/Udorn/72 (H3N2) = type: cell-based
A/WSN/33 (H1N1) [1] = type: cell-based
[2] = tested on: A/California/07/2009 (H1N1); type: cell-based
[3] = tested on: B/Wisconsin/1/2010 (Yamagata); type: cell-based
[4] = tested on: B/Phuket/3073/2013 (Yamagata); type: cell-based
A/Texas/04/2009 (H1N1) = type: cell-based
[5] = tested on: B/Brisbane/60/2008 (Victoria); type: cell-based
[6] = tested on: A/Switzerland/9715293/2013 (H3N2); type: cell-based
[7] = tested on: A/Denmark/528/2009 (H1N1); type: cell-based
[8] = tested on: A/Denmark/524/2009 (H1N1); type: cell-based
A/WSN/33 (H1N1) [9] = type: cell-based, Influenza A virus
[10] = tested on: isomerase activity of CypA; conditions: ref Ni et al., 2009; cited from earlier work
[11] = tested on: clinically isolated influenza A and B viruses; type: cell-based
[12] = target: A/WSN/33 (H1N1) viral polymerase activity (Influenza A virus, UniProt P15682); type: cell-based, influenza A/WSN/33 virus
Sequence of A/WSN/33 (H1N1) viral polymerase activity (P15682 whole entry, looked up): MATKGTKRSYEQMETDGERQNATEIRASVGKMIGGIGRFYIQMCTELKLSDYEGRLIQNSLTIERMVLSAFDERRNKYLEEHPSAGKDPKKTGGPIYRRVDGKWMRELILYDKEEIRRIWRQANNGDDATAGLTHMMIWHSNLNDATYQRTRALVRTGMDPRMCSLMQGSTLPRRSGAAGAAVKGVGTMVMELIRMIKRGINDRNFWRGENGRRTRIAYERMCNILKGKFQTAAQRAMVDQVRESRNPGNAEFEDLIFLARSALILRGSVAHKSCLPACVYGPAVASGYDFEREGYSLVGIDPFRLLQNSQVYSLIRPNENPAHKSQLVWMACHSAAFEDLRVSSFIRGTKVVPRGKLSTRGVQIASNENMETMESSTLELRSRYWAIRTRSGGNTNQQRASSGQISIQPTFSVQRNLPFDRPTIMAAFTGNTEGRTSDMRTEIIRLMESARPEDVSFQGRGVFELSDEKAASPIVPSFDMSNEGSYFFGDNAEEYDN

| Compound | Sensitivity of influenza strain to drug (A/Udorn/72 (H3N2)) | Sensitivity of influenza strain to drug (A/WSN/33 (H1N1) [1]) | Sensitivity of influenza strain to drug [2] | Sensitivity of influenza strain to drug [3] | Sensitivity of influenza strain to drug [4] | Sensitivity of influenza strain to drug (A/Texas/04/2009 (H1N1)) | Sensitivity of influenza strain to drug [5] | Sensitivity of influenza strain to drug [6] | Sensitivity of influenza strain to drug [7] | Sensitivity of influenza strain to drug [8] | also measured |
| --- | --- | --- | --- | --- | --- | --- | --- | --- | --- | --- | --- |
| NC12CC3CC(CC(C3)C1)C2 [Amantadine, amantadine] | S | R (S31N) | R (S31N) | R | R | R (S31N) | R | R (S31N) | R (S31N) | R(S31N) |  |
| CCC(CC)O[C@@H]1C=C(C(=O)O)C[C@H](N)[C@H]1NC(C)=O [Oseltamivir carboxylate, oseltamivir carboxylate] | S | S | S | S | S | R (H275Y) | S | S | R (H275Y) | S | antiviral effect by time of addition (A/WSN/33 (H1N1) [9]): potent antiviral effect even when added 8 hours post initial viral infection |
| O=C(NC(=O)c1c(F)cccc1Cl)NC1c2ccccc2-c2ccccc21 [TMN355 (2)] |  |  |  |  |  |  |  |  |  |  | potency in inhibiting the isomerase activity of CypA relative to CsA (1) [10]: 27 times; effect on replication of several influenza A and B strains [11]: had no effect on the replication |
| Cc1onc(-c2ccccc2)c1C(=O)N1CCN(c2ccc([N+](=O)[O-])cc2Cl)CC1 [nucleozin (21), nucleozin] |  |  |  |  |  |  |  |  |  |  | viral polymerase activity (normalized luciferase ratio) [12]: completely inhibited the viral polymerase activity |
| Cyclosporine C [CsC (3)] |  |  |  |  |  |  |  |  |  |  | antiviral efficacy against A/WSN/33 (H1N1) compared with CsA (1) (A/WSN/33 (H1N1) [1]): less active; also recorded: slightly less effective than CsA (1) |
